Experimental data published in PubChem BioAssay (NCI).
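Method: 48-hour compound exposure of cells in 96-well plates, five concentrations, linear interpolation of endpoints. TGI: concentration producing complete growth inhibition.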

System: P388/ADR leukemia
Assay: NCI tumour cell line growth inhibition, 48 h

## CN(C)CC1CCCC(CN(C)C)C1=O (stereo unspecified)
  TGI: 0.226 µM
